Measurements: patent publication US12428406B2 (PMV Pharmaceuticals, Inc., priority 2019, dated 2025)

Biological target: T1, p53 Y220C (Homo sapiens, UniProt P04637, Y220C)
T1 construct: The recombinant protein was a truncation mutant containing only amino acids 94-312 of p53; made in house; host or cells: E. coli
Assay: In vitro DNA binding activity assay (HTRF / TR-FRET): stabilization of p53 Y220C and increase of its DNA binding activity
Format: biochemical
Settings: recombinant His-tagged p53 Y220C DNA binding domain (aa 94-312), biotin-labeled consensus DNA, incubated at 27° C. or 29° C. for 60 min
How it was run: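 Test compounds, diluted 3-fold in DMSO from 4.5 mM stocks, were incubated with bacterially expressed His-tagged p53 Y220C at room temperature for 15 min, and after a further step for 20 min. DNA binding was detected by time-resolved FRET between APC and europium labels. SC150 marks the concentration increasing binding by 50%.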

T1 sequence (P04637 94-312, change not shown): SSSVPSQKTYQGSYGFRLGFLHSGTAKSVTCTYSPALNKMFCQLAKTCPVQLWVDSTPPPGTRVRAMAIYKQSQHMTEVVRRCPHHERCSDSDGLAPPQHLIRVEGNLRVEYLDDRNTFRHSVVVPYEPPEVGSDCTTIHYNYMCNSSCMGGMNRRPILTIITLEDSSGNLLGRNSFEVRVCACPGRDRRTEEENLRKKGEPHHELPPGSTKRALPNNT

| Compound | SC150 (concentration of the compound required to increase the DNA binding activity by 50%) |
| --- | --- |
| COc1cc(S(=O)(=O)N2CCOCC2)ccc1NCC#Cc1cc2c(NC3CCN(C)CC3)cccc2n1CC(F)(F)F [Compound 480A, 2-(3-{[2-methoxy-4-(morpholine-4-sulfonyl)phenyl]amino}prop-1-yn-1-yl)-N-(1-methylpiperidin-4-yl)-1-(2,2,2-trifluoroethyl)-1H-indol-4-amine] | + (+ = 0 μM ≤ SC150 < 0.05 μM) |
| CCOC(=O)c1ccc(NCC#Cc2cc3c(N[C@H]4CCN(C)C[C@H]4F)cccc3n2CC(F)(F)F)c(OC)c1 [Compound 840A, ethyl 4-((3-(4-(((3R,4S)-3-fluoro-1-methylpiperidin-4-yl)amino)-1-(2,2,2-trifluoroethyl)-1H-indol-2-yl)prop-2-yn-1-yl)amino)-3-methoxybenzoate] | + (+ = 0 μM ≤ SC150 < 0.05 μM) |
| COCC(CN1CCC(Nc2cccc3c2cc(C#CCNc2ccc(S(C)(=O)=O)cc2OC)n3CC(F)(F)F)CC1)OC(C)=O (stereo not shown) [Compound 593A, 1-{4-[(2-{3-[(4-methanesulfonyl-2-methoxyphenyl)amino]prop-1-yn-1-yl}-1-(2,2,2-trifluoroethyl)-1H-indol-4-yl)amino]piperidin-1-yl}-3-methoxypropan-2-yl acetate] | + (+ = 0 μM ≤ SC150 < 0.05 μM) |
| CS(=O)(=O)c1ccc(NCC#Cc2cc3c(NC4CCS(=O)(=O)CC4)cccc3n2CC(F)(F)F)c(OC(F)(F)F)c1 [Compound 1035A, 4-{[2-(3-{[4-methanesulfonyl-2-(trifluoromethoxy)phenyl]amino}prop-1-yn-1-yl)-1-(2,2,2-trifluoroethyl)-1H-indol-4-yl]amino}-1λ^6-thiane-1,1-dione] | + (+ = 0 μM ≤ SC150 < 0.05 μM) |
| COc1cc(C(=O)O)ccc1NCC#Cc1cc2c(N[C@@H]3CCN(C[C@H](C)O)C[C@@H]3F)cccc2n1CC(F)(F)F (single isomer, unassigned) [Compound 921A] | + (+ = 0 μM ≤ SC150 < 0.05 μM) |
| COc1cc(C(=O)OCC(C)O)ccc1NCC#Cc1cc2c(N[C@H]3CCN(C)C[C@H]3F)cccc2n1CC(F)(F)F (mixture of isomers) [Compound 806A, rac-2-hydroxypropyl 4-{[3-(4-{[(3R,4S)-3-fluoro-1-methylpiperidin-4-yl]amino}-1-(2,2,2-trifluoroethyl)-1H-indol-2-yl)prop-2-yn-1-yl]amino}-3-methoxybenzoate] | + (+ = 0 μM ≤ SC150 < 0.05 μM) |
| COc1cc(S(C)(=O)=O)ccc1NCC#Cc1cc2c(NC3CCN(C[C@H](O)CO)CC3)cccc2n1CC(F)(F)F [Compound 558A, (2S)-3-{4-[(2-{3-[(4-methanesulfonyl-2-methoxyphenyl)amino]prop-1-yn-1-yl}-1-(2,2,2-trifluoroethyl)-1H-indol-4-yl)amino]piperidin-1-yl}propane-1,2-diol] | + (+ = 0 μM ≤ SC150 < 0.05 μM) |
| CNC(=O)c1ccc(NCC#Cc2cc3c(N[C@H]4CC[C@@H](N(C)C)CC4)cccc3n2CC(F)(F)F)c(OCCOC)c1 [Compound 99A, 3-(2-methoxyethoxy)-N-methyl-4-{[3-(4-{[(1S,4S)-4-(dimethyl-amino)cyclohexyl]amino}-1-(2,2,2-trifluoroethyl)-1H-indol-2-yl)prop-2-yn-1-yl]amino}benzamide] | + (+ = 0 μM ≤ SC150 < 0.05 μM) |
| COCCN1CC[C@H](Nc2cccc3c2cc(C#CCNc2ccc(S(C)(=O)=O)cc2OC)n3CC(F)(F)F)[C@H](F)C1 [Compound 860A, N-[(3R,4S)-3-fluoro-1-(2-methoxyethyl)piperidin-4-yl]-2-{3-[(4-methanesulfonyl-2-methoxyphenyl)amino]prop-1-yn-1-yl}-1-(2,2,2-trifluoroethyl)-1H-indol-4-amine] | + (+ = 0 μM ≤ SC150 < 0.05 μM) |
| COc1cc(S(=O)(=O)Nc2cc(C)on2)ccc1NCC#Cc1cc2c(NC3CCS(=O)(=O)CC3)cccc2n1CC(F)(F)F [Compound 1040A, 4-[(3-{4-[(1,1-dioxo-1λ^6-thian-4-yl)amino]-1-(2,2,2-trifluoroethyl)-1H-indol-2-yl}prop-2-yn-1-yl)amino]-3-methoxy-N-(5-methyl-1,2-oxazol-3-yl)benzene-1-sulfonamide] | + (+ = 0 μM ≤ SC150 < 0.05 μM) |
| CS(=O)(=O)c1ccc(NCC#Cc2cc3c(N[C@H]4CC[C@@H](N5CC6(COC6)C5)CC4)cccc3n2CC(F)(F)F)c(OCC(F)(F)F)c1 [Compound 232A, 2-(3-{[4-methane-sulfonyl-2-(2,2,2-trifluoro-ethoxy)phenyl]amino}prop-1-yn-1-yl)-N-[(1S,4S)-4-{2-oxa-6-azaspiro[3.3]heptan-6-yl}cyclohexyl]-1-(2,2,2-trifluoroethyl)-1H-indol-4-amine] | + (+ = 0 μM ≤ SC150 < 0.05 μM) |
| COc1cc(S(=O)(=O)NC(C)=O)ccc1NCC#Cc1cc2c(N[C@H]3CCN(C)C[C@H]3F)cccc2n1CC(F)(F)F [Compound 838A, N-(4-{[3-(4-{[(3R,4S)-3-fluoro-1-methylpiperidin-4-yl]amino}-1-(2,2,2-trifluoroethyl)-1H-indol-2-yl)prop-2-yn-1-yl]amino}-3-methoxybenzenesulfonyl)acetamide] | + (+ = 0 μM ≤ SC150 < 0.05 μM) |
| COc1cc(S(=O)(=O)N2CCOCC2)ccc1NCC#Cc1cc2c(NC3CCS(=O)(=O)CC3)cccc2n1CC(F)(F)F [Compound 1036A, 4-{[2-(3-{[2-methoxy-4-(morpholine-4-sulfonyl)phenyl]amino}prop-1-yn-1-yl)-1-(2,2,2-trifluoroethyl)-1H-indol-4-yl]amino}-1λ^6-thiane-1,1-dione] | + (+ = 0 μM ≤ SC150 < 0.05 μM) |
| CNC(=O)c1ccc(NCC#Cc2cc3c(N[C@H]4CC[C@@H](N(C)C)CC4)cccc3n2CC(F)(F)F)c(OC)c1 [Compound 75A, 3-methoxy-N-methyl-4-{[3-(4-{[(1S,4S)-4-(dimethylamino)cyclohexyl]amino}-1-(2,2,2-trifluoroethyl)-1H-indol-2-yl)prop-2-yn-1-yl]amino}benzamide] | ++ (++ = 0.05 μM ≤ SC150 < 0.1 μM) |
| COc1cc(C(=O)NCC2COC(=O)O2)ccc1NCC#Cc1cc2c(N[C@@H]3CCN(C)C[C@@H]3F)cccc2n1CC(F)(F)F (stereo partly drawn) [Compound 968A, 4-{1[3-(4-{1[(3S,4R)-3-fluoro-1-methylpiperidin-4-yl]amino}-1-(2,2,2-trifluoroethyl)-1H-indol-2-yl)prop-2-yn-1-yl]amino}-3-methoxy-N-[(2-oxo-1,3-dioxolan-4-yl)methyl]benzamide] | + (+ = 0 μM ≤ SC150 < 0.05 μM) |
| CCN1CC[C@H](Nc2cccc3c2cc(C#CCNc2ccc(C(=O)O)cc2OC)n3CC(F)(F)F)[C@H](F)C1 [Compound 828A, 4-{[3-(4-{[(3R,4S)-1-ethyl-3-fluoropiperidin-4-yl]amino}-1-(2,2,2-trifluoroethyl)-1H-indol-2-yl)prop-2-yn-1-yl]amino}-3-methoxybenzoic acid] | + (+ = 0 μM ≤ SC150 < 0.05 μM) |
| CNC(=O)c1ccc(NCC#Cc2cc3c(NC4CCN(C)CC4)cccc3n2CC(F)(F)F)s1 [Compound 524A, N-methyl-5-((3-(4-((1-methylpiperidin-4-yl)amino)-1-(2,2,2-trifluoroethyl)-1H-indol-2-yl)prop-2-yn-1-yl)amino)thiophene-2-carboxamide] | + (+ = 0 μM ≤ SC150 < 0.05 μM) |
| COc1cc(S(C)(=O)=O)ccc1NCC#Cc1cc2c(N[C@H]3CC[C@H](N4CCC(OC)CC4)CC3)cccc2n1CC(F)(F)F [Compound 350A, 2-{3-[(4-methane-sulfonyl-2-methoxy-phenyl)amino]prop-1-yn-1-yl}-N-[(1R,4R)-4-(4-methoxypiperidin-1-yl)cyclohexyl]-1-(2,2,2-trifluoroethyl)-1H-indol-4-amine] | + (+ = 0 μM ≤ SC150 < 0.05 μM) |
| COCC(O)CN1CCC(Nc2cccc3c2cc(C#CCNc2ccc(S(C)(=O)=O)cc2)n3CC(F)(F)F)C1 (stereo not drawn) [Compound 457A, l-{3-[(2-{3-[(4-methanesulfonylphenyl)amino]prop-1-yn-1-yl}-1-(2,2,2-trifluoroethyl)-1H-indol-4-yl)amino]pyrrolidin-1-yl}-3-methoxypropan-2-ol] | ++ (++ = 0.05 μM ≤ SC150 < 0.1 μM) |
| COc1cc(S(=O)(=O)NC(=O)CN)ccc1NCC#Cc1cc2c(N[C@H]3CC[C@H](N4CC5(CCOCC5)C4)CC3)cccc2n1CC(F)(F)F [Compound 307A, N-((4-((3-(4-(((1R,4R)-4-(7-oxa-2-azaspiro[3.5]nonan-2-yl)cyclohexyl)amino)-1-(2,2,2-trifluoroethyl)-1H-indol-2-yl)prop-2-yn-1-yl)amino)-3-methoxyphenyl)sulfonyl)-2-aminoacetamide] | + (+ = 0 μM ≤ SC150 < 0.05 μM) |
| COCCNC(=O)c1ccc(NCC#Cc2cc3c(N[C@@H]4CCN(C)C[C@@H]4F)cccc3n2CC(F)(F)F)c(OC)c1 [Compound 945A, 4-{[3-(4-{[(3S,4R)-3-fluoro-1-methylpiperidin-4-yl]amino}-1-(2,2,2-trifluoroethyl)-1H-indol-2-yl)prop-2-yn-1-yl]amino}-3-methoxy-N-(2-methoxyethyl)benzamide] | + (+ = 0 μM ≤ SC150 < 0.05 μM) |
| COc1cc(C(C)(C)C#N)ccc1NCC#Cc1cc2c(N[C@H]3CC[C@H](N4CC5(CCOCC5)C4)CC3)cccc2n1CC(F)(F)F [Compound 301A, 2-(3-methoxy-4-{[3-(4-{[(1R,4R)-4-{7-oxa-2-azaspiro[3.5]nonan-2-yl}cyclohexyl]amino}-1-(2,2,2-trifluoroethyl)-1H-indol-2-yl)prop-2-yn-1-yl]amino}phenyl)-2-methylpropanenitrile] | + (+ = 0 μM ≤ SC150 < 0.05 μM) |
